Measured values from ChEMBL document CHEMBL1201862, “PubChem BioAssay data set” (2004).
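Exposure lasted 48 hours, with cells grown in 96-well plates and compounds tested at five concentrations. GI50: concentration for 50% inhibition of growth.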 The source made the active and inactive calls. No stated cut-off is given here; in the data, active = GI50 up to about 1.1 µM and inactive = higher.

What was measured:
Test in all cases: NCI tumour cell line growth inhibition, 48 h
[1] = tested on: RXF 393
[2] = tested on: SNB-19
[3] = tested on: KM12
[4] = tested on: SK-MEL-28
[5] = tested on: EKVX
[6] = tested on: OVCAR-3
[7] = tested on: OVCAR-8
[8] = tested on: NCI-H23
[9] = tested on: DU-145
[10] = tested on: UO-31
[11] = tested on: HCC 2998
[12] = tested on: CAKI-1
[13] = tested on: PC-3
[14] = tested on: SK-OV-3
[15] = tested on: UACC-257
[16] = tested on: Malme-3M
[17] = tested on: SF-539
[18] = tested on: MCF7
[19] = tested on: HL-60
[20] = tested on: SNB-75
[21] = tested on: SK-MEL-2
[22] = tested on: MDA-MB-435
[23] = tested on: SK-MEL-5
[24] = tested on: MDA-MB-231
[25] = tested on: NCI/ADR-RES
[26] = tested on: HOP-92
[27] = tested on: SN12C
[28] = tested on: SF-268
[29] = tested on: SR
[30] = tested on: LOX IMVI
[31] = tested on: RPMI-8226
[32] = tested on: M14
[33] = tested on: BT-549
[34] = tested on: NCI-H226
[35] = tested on: UACC-62
[36] = tested on: MOLT-4
[37] = tested on: A498
[38] = tested on: TK-10
[39] = tested on: NCI-H522
[40] = tested on: K562
[41] = tested on: HT-29
[42] = tested on: HCT-15
[43] = tested on: SF-295
[44] = tested on: T47D
[45] = tested on: IGROV-1
[46] = tested on: CCRF-CEM
[47] = tested on: ACHN
[48] = tested on: 786-0
[49] = tested on: Hs-578T
[50] = tested on: MDA-N
[51] = tested on: SW-620
[52] = tested on: OVCAR-4
[53] = tested on: HCT-116
[54] = tested on: HOP-62
[55] = tested on: A549
[56] = tested on: NCI-H460
[57] = tested on: U-251
[58] = tested on: COLO 205
[59] = tested on: OVCAR-5

COc1cccc(OC)c1/C=C1\OC(=O)c2cccc(OC)c21
GI50 [1]: 4.61 µM (inactive)
GI50 [2]: 4.74 µM (inactive)
GI50 [3]: 1.74 µM (inactive)
GI50 [4]: 6.7 µM (inactive)
GI50 [5]: 10.3 µM (inactive)
GI50 [6]: 2.51 µM (inactive)
GI50 [7]: 4.59 µM (inactive)
GI50 [8]: 19.4 µM (inactive)
GI50 [9]: 5.32 µM (inactive)
GI50 [10]: 5.47 µM (inactive)
GI50 [11]: 3.16 µM (inactive)
GI50 [12]: 4.68 µM (inactive)
GI50 [13]: 4.72 µM (inactive)
GI50 [14]: 5.2 µM (inactive)
GI50 [15]: 7.43 µM (inactive)
GI50 [16]: 3.42 µM (inactive)
GI50 [17]: 2.3 µM (inactive)
GI50 [18]: 3.14 µM (inactive)
GI50 [19]: 0.931 µM (active)
GI50 [20]: 2.96 µM (inactive)
GI50 [21]: 4.14 µM (inactive)
GI50 [22]: 0.526 µM (active)
GI50 [23]: 3.13 µM (inactive)
GI50 [24]: 12.8 µM (inactive)
GI50 [25]: 3.51 µM (inactive)
GI50 [26]: 8.69 µM (inactive)
GI50 [27]: 20 µM (inactive)
GI50 [28]: 6.4 µM (inactive)
GI50 [29]: 0.92 µM (active)
GI50 [30]: 6.28 µM (inactive)
GI50 [31]: 3.46 µM (inactive)
GI50 [32]: 4.1 µM (inactive)
GI50 [33]: 5.22 µM (inactive)
GI50 [34]: 3.84 µM (inactive)
GI50 [35]: 2.62 µM (inactive)
GI50 [36]: 5.64 µM (inactive)
GI50 [37]: 4.14 µM (inactive)
GI50 [38]: 11.5 µM (inactive)
GI50 [39]: 2.5 µM (inactive)
GI50 [40]: 0.527 µM (active)
GI50 [41]: 2.11 µM (inactive)
GI50 [42]: 2.24 µM
GI50 [43]: 3.13 µM (inactive)
GI50 [44]: 5.33 µM (inactive)
GI50 [45]: 4.71 µM (inactive)
GI50 [46]: 3.84 µM (inactive)
GI50 [47]: 8.59 µM (inactive)
GI50 [48]: 5.02 µM (inactive)
GI50 [49]: 3.96 µM (inactive)
GI50 [50]: 0.596 µM (active)
GI50 [51]: 3.37 µM (inactive)
GI50 [52]: > 30.1 µM (inactive)
GI50 [53]: 3.87 µM (inactive)
GI50 [54]: 5.62 µM (inactive)
GI50 [55]: 7.36 µM (inactive)
GI50 [56]: 2.65 µM (inactive)
GI50 [57]: 3.32 µM (inactive)
GI50 [58]: 2.88 µM (inactive)
GI50 [59]: 13.2 µM (inactive)

COc1cc2c(cc1OC)C1=CCC(c3ccccc3)[N+]1(C)CC2 (stereo not given)
GI50 [1]: > 100 µM (inactive)
GI50 [2]: > 100 µM (inactive)
GI50 [3]: > 100 µM (inactive)
GI50 [4]: > 100 µM (inactive)
GI50 [5]: > 100 µM (inactive)
GI50 [6]: > 100 µM (inactive)
GI50 [7]: > 100 µM (inactive)
GI50 [8]: > 100 µM (inactive)
GI50 [9]: > 100 µM (inactive)
GI50 [10]: > 100 µM (inactive)
GI50 [11]: > 100 µM (inactive)
GI50 [12]: > 100 µM (inactive)
GI50 [13]: > 100 µM (inactive)
GI50 [14]: > 100 µM (inactive)
GI50 [15]: 33.5 µM (inactive)
GI50 [16]: 56.9 µM (inactive)
GI50 [17]: > 100 µM (inactive)
GI50 [18]: > 100 µM (inactive)
GI50 [19]: > 100 µM (inactive)
GI50 [20]: > 100 µM (inactive)
GI50 [21]: > 100 µM (inactive)
GI50 [22]: > 100 µM (inactive)
GI50 [23]: 78.5 µM (inactive)
GI50 [24]: > 100 µM (inactive)
GI50 [25]: > 100 µM (inactive)
GI50 [26]: > 100 µM (inactive)
GI50 [28]: > 100 µM (inactive)
GI50 [29]: > 100 µM (inactive)
GI50 [30]: > 100 µM (inactive)
GI50 [31]: > 100 µM (inactive)
GI50 [32]: > 100 µM (inactive)
GI50 [33]: > 100 µM (inactive)
GI50 [34]: > 100 µM (inactive)
GI50 [35]: > 100 µM (inactive)
GI50 [36]: > 100 µM (inactive)
GI50 [37]: > 100 µM (inactive)
GI50 [38]: > 100 µM (inactive)
GI50 [40]: > 100 µM (inactive)
GI50 [41]: > 100 µM (inactive)
GI50 [42]: > 100 µM
GI50 [43]: > 100 µM (inactive)
GI50 [44]: > 100 µM (inactive)
GI50 [45]: > 100 µM (inactive)
GI50 [46]: > 100 µM (inactive)
GI50 [47]: > 100 µM (inactive)
GI50 [48]: > 100 µM (inactive)
GI50 [49]: > 100 µM (inactive)
GI50 [50]: > 100 µM (inactive)
GI50 [51]: > 100 µM (inactive)
GI50 [52]: > 100 µM (inactive)
GI50 [53]: > 100 µM (inactive)
GI50 [55]: > 100 µM (inactive)
GI50 [56]: > 100 µM (inactive)
GI50 [57]: > 100 µM (inactive)
GI50 [58]: > 100 µM (inactive)
GI50 [59]: > 100 µM (inactive)
